Measured values: the NIST ThermoML archive (doi:10.1021/je1002237)

Test: xn = mol fraction of the nth substance listed
Conditions: 101 kPa, Liquid

CCOS(=O)(=O)[O-].CCn1cc[n+](C)c1 [1-ethyl-3-methylimidazolium ethyl sulfate] + CO
mass density [kg/m3]
Conditions	278.15 K	283.15 K	288.15 K	293.15 K	298.15 K	303.15 K	308.15 K
x2 = 0	1251.04	1247.5	1244.04	1240.66	1237.27	1233.89	1230.51
x2 = 0.005	1250.51	1246.96	1243.52	1240.13	1236.74	1233.36	1229.98
x2 = 0.0097	1250.12	1246.57	1243.14	1239.75	1236.36	1232.97	1229.59
x2 = 0.015	1249.8	1246.24	1242.81	1239.42	1236.02	1232.63	1229.24
x2 = 0.0252	1248.78	1245.23	1241.82	1238.42	1235.02	1231.63	1228.25
x2 = 0.0403	1247.44	1243.88	1240.48	1237.07	1233.67	1230.27	1226.88
x2 = 0.0598	1245.64	1242.13	1238.72	1235.31	1231.89	1228.49	1225.09
x2 = 0.08	1243.77	1240.29	1236.86	1233.44	1230.02	1226.61	1223.2
x2 = 0.1001	1241.79	1238.35	1234.91	1231.47	1228.05	1224.63	1221.22
x2 = 0.15	1236.8	1233.34	1229.88	1226.42	1222.98	1219.54	1216.12
x2 = 0.2	1231.24	1227.75	1224.26	1220.78	1217.32	1213.87	1210.42
x2 = 0.3	1218.1	1214.56	1211.02	1207.5	1203.99	1200.5	1197.01
x2 = 0.4	1201.9	1198.3	1194.72	1191.15	1187.59	1184.05	1180.51
x2 = 0.4999	1180.84	1177.18	1173.54	1169.91	1166.29	1162.69	1159.1
x2 = 0.6	1153.55	1149.82	1146.1	1142.4	1138.71	1135.03	1131.37
x2 = 0.7	1115.57	1111.73	1107.91	1104.11	1100.31	1096.53	1092.76
x2 = 0.8	1059.76	1055.79	1051.82	1047.87	1043.92	1039.98	1036.05
x2 = 0.9	971.1	966.89	962.68	958.49	954.29	950.1	945.91
x2 = 0.95	902.84	898.44	894.05	889.67	885.26	880.86	876.46
x2 = 0.98	849.24	844.69	840.15	835.63	831.05	826.49	821.91

CCOS(=O)(=O)[O-].CCn1cc[n+](C)c1 [1-ethyl-3-methylimidazolium ethyl sulfate] + ClCCl
x2 = 0
Conditions	mass density [kg/m3]
278.15 K	1251.04
283.15 K	1247.5
288.15 K	1244.04
293.15 K	1240.66
298.15 K	1237.27
303.15 K	1233.89
308.15 K	1230.51

CCOS(=O)(=O)[O-].CCn1cc[n+](C)c1 [1-ethyl-3-methylimidazolium ethyl sulfate] + O
mass density [kg/m3]
Conditions	278.15 K	283.15 K	288.15 K	293.15 K	298.15 K	303.15 K	308.15 K
x2 = 0	1250.63	1247.18	1243.79	1240.39	1237	1233.63	1230.27
x2 = 0.0136	1250.46	1246.91	1243.47	1240.09	1236.7	1233.31	1229.93
x2 = 0.0253	1250.19	1246.63	1243.21	1239.82	1236.42	1233.03	1229.65
x2 = 0.0415	1249.8	1246.24	1242.85	1239.46	1236.06	1232.67	1229.29
x2 = 0.0729	1249.17	1245.66	1242.27	1238.88	1235.48	1232.09	1228.7
x2 = 0.1429	1247.67	1244.26	1240.85	1237.44	1234.04	1230.64	1227.25
x2 = 0.2344	1245.53	1242.12	1238.69	1235.28	1231.86	1228.46	1225.06
x2 = 0.392	1239.94	1236.5	1233.06	1229.63	1226.2	1222.78	1219.36
x2 = 0.5695	1228.84	1225.35	1221.87	1218.47	1214.98	1211.55	1208.12
x2 = 0.7408	1207.89	1204.4	1200.9	1197.39	1193.86	1190.33	1186.78
x2 = 0.9032	1149.37	1146.18	1142.95	1139.65	1136.37	1133.02	1129.61
x2 = 0.9577	1094.19	1091.9	1089.5	1086.99	1084.4	1081.7	1078.89
x2 = 0.984	1045.11	1043.88	1042.43	1040.71	1038.74	1036.44	1033.81
x2 = 0.9923	1023.67	1022.91	1021.88	1020.61	1019.12	1017.42	1015.54
x2 = 0.9963	1012.18	1011.69	1010.85	1009.45	1008.24	1006.56	1004.39
